Entries after “also recorded” stand apart in the source; their conditions may differ.
What was measured:
[1] = Solution stability in pH 7.4 PBS at 37° C. by NMR spectroscopy; format: physicochemical; settings: for stability in pH 7.4 PBS (1H NMR spectra): up to 25 days; for half-life of decomposition in pH 7.4 PBS: NMR, first-order fit
Method: (§1) The stabilities of 1-5 in water and pH 7.4 phosphate buffered saline (PBS) at 37° C. were determined by NMR spectroscopy. […] Over the course of this reaction, the pH changed from 7.5 to 6.3. For 4, the rate of decomposition was quicker. […] The pH of this solution remained at 7.5 for the duration of the experiment.
In pH 7.4 PBS, the rates of decomposition increased. The half-lives of 2 and 4 in this medium were 3.4 and 1.8 days, respectively. For 4, the final product was the same as that observed in the aquation in non-buffered water characterized by a ^19F NMR chemical shift at −76.6 ppm. […] Although the major final product was the same as that observed for the aquation in pure water (^1H δ=2.22 ppm), two other minor products were observed by ^1H NMR spectroscopy with CH3 proton resonances at 1.91 and 1.56 ppm.
(§2) The platinum complexes were dissolved in water or pH 7.4 PBS containing 10% D2O to a typical concentration of 1 mM. The solutions were transferred to NMR tubes and incubated in a 37° C. water bath. ^1H and ^19F NMR spectra were obtained at various type points during the incubation. A small amount of 1,4-dioxane (δ=3.75 ppm) was included in the samples as an internal standard for referencing the ^1H NMR spectra and a sealed capillary containing aqueous KF (δ=−120.46 ppm) was used for referencing ^19F NMR spectra. The methyl group of 2 in the ^1H NMR spectra was integrated relative to the 1,4-dioxane reference at different time points and used for kinetic analyses. The trifluoromethyl group of 4 in the ^19F NMR spectra was integrated relative to the KF standard at different time points and used for kinetic analyses. Under the assumption of first-order kinetics, approximate half-lives were determined by fitting a line to a plot of ln [Pt] versus time and using the integrated first-order rate law, ln [Pt]=−kt+[Pt]o and the relationship, t1/2=ln 2/k, where [Pt]c, is the starting concentration of complex, k is the pseudo first-order rate constant, t is time, and t1/2 is the half-life. Water suppression for ^1H NMR spectra was accomplished with presaturation. The pH of the solutions was measured at the beginning and end of the desired incubation time using a DG-111-SG glass electrode calibrated with standard buffers.

[2] = Solution stability in water at 37° C. by NMR spectroscopy; format: physicochemical; settings: for stability in water (1H NMR spectra): up to 25 days; for half-life of decomposition in water: NMR, first-order fit
Method: as §1, §2

[3] = tested on: HeLa (human cervical cancer); assay: MTT cytotoxicity assay, HeLa; format: cell-based; settings: continuous 72 h
Method: (§3) The cells were treated for a continuous 72 h period. The resulting 50% growth inhibitory concentration (IC50) values are summarized in Table 4 and graphically depicted in FIG. 5.
(§4) HeLa (human cervical cancer), A549 (human lung cancer), U2OS (osteosarcoma), MCF-7 (human breast cancer) cells were grown as adherent monolayers in growth medium consisting of Dulbecco's Modified Eagle Medium (DMEM) supplemented with 10% fetal bovine serum (FBS) and 1% penicillin/streptomycin. The cultures were grown in 25 cm^2 flasks in an incubator at 37° C. with a humidified atmosphere composed of 5% CO2.
(§5) Trypsinized cells were seeded into a 96-well plate at a cell density of 2000 cells/well in 200 μL of growth medium and incubated for 24 h. The medium was then removed and 200 μL new growth medium containing various concentrations of the platinum complexes was added. After 72 h, the medium was removed, 200 μL of a 0.8 mg/mL solution of MTT in DMEM was added, and the plate was incubated further for 4 h. The DMEM/MTT mixture was aspirated and 200 μL of DMSO with 10% pH 10.5 glycine buffer was added to dissolve the resulting purple formazan crystals. The absorbance of the plates was read at 555 nm. Absorbance values were normalized to the platinum-free control wells and plotted as [Pt] versus % viability. IC50 values were interpolated from the resulting curves. The reported IC50 values are the averages from at least three independent experiments, which each consisted of six replicates per concentration level.

[4] = tested on: A549 (human lung cancer); assay: MTT cytotoxicity assay, A549; format: cell-based; settings: continuous 72 h
Method: as §3, §4, §5

[5] = tested on: nuclear DNA of HeLa cells; assay: Intracellular DNA platination in HeLa cells by GFAAS; format: cell-based, human; settings: 100 μM for 4 h, then 16 h platinum-free medium
Method: Because platinum-based drugs exert their cytotoxic effects by the formation of DNA cross-links, the extent to which 1-5 bind to intracellular DNA was measured. Cells were treated with 100 μM of the platinum complexes for 4 h and then incubated for an additional 16 h in platinum-free growth medium. The nuclear DNA was isolated, and the quantity of bound platinum was measured by GFAAS.
Five million HeLa cells were seeded in a 100 mm Petri dish containing 9 mL of growth medium. On the following day, the cells were treated with the platinum complex at 100 μM concentration for 4 h. The growth medium was then replaced with platinum-free medium, and the cells were incubated for an additional 16 h. Cells, both floating and attached, were collected and combined. Trypsin (2 mL) was used to detach the cells. The combined cells were centrifuged for 5 min at 4° C., and the resulting cell pellet was washed twice with 3 mL of ice-cold PBS. DNAzol (1 mL, genomic DNA isolation reagent, MRC), containing 100 μg/mL RNase A, was used to lyse the cell pellet. DNA was precipitated with 0.5 mL of absolute ethanol, washed 2 times with 75% ethanol (0.75 mL), and redissolved in 200 μL of 8 mM NaOH. The DNA concentration was determined by UV-visible spectroscopy, and platinum was quantified by GFAAS. The reported values are the average of at least three independent experiments with the error reported as the standard deviation.

[6] = tested on: HeLa cells; assay: Cellular uptake in HeLa cells by GFAAS; format: cell-based, human; settings: 10 μM, 4 h exposure
Method: The cellular uptake scales with the lipophilicity of the compound in an exponential fashion (FIG. 6). The most lipophilic complex, 5, is taken up to the largest extent (520±80 ng Pt/10^6 cells), whereas the least lipophilic complex is taken up to the least extent (6±2 ng Pt/10^6 cells).
The total platinum uptake per cell was determined using slight modifications of a previously described protocol. In two 6-well plates, 3×10^5 cells per well were seeded in 3 wells with 2.5 mL of growth medium. In one of the plates, the additional 3 wells were filled with 2.5 mL of growth medium to act as blanks for non-specific platinum adsorption on the surface of the well. After incubating for 48 h, each well in the plate containing both cells and cell-free medium was treated with 0.278 mL of a 100-μM solution of the desired compound to give an exposure concentration of 10 μM. The cells and cell-free blanks were incubated with the Pt complex for 4 h. Meanwhile, the cells in the other plate were counted with trypan blue after detachment with trypsin in order to obtain the number of cells per well. After the 4 h incubation period, the growth medium was aspirated and all six wells were washed twice with 3 mL of pH 7.4 PBS and then treated with exactly 0.5 mL of hot (≈90° C.) concentrated nitric acid for 2 h. This nitric acid was analyzed by GFAAS to determine the total Pt content per well. The amount of Pt per cell was calculated by subtracting the average amount of Pt found in the blank wells from the average amount of Pt found in the cell-containing wells and normalizing to the average number of cells per well.

[7] = tested on: MCF-7 (human breast cancer); assay: MTT cytotoxicity assay, MCF-7; format: cell-based; settings: continuous 72 h
Method: as §3, §4, §5

[8] = tested on: U2OS (human osteosarcoma); assay: MTT cytotoxicity assay, U2OS; format: cell-based; settings: continuous 72 h
Method: as §3, §4, §5

[9] = Solubility observations; format: physicochemical; settings: for solubility in water: water (cold water wash)
[10] = tested on: central nervous system (CNS) cancer cell lines; assay: NCI-60 tumor cell panel screen, CNS cancer cell lines; format: cell-based; settings: 10 μM single dose, 48 h, SRB assay
Method: (§6) Compound 4 was submitted to the NCI in July 2011 for single-dose testing in the NCI-60 tumor cell screen. These tests were carried out by the NCI using their established protocols.

[11] = tested on: NCI-60 tumor cell panel (60 cell lines); assay: NCI-60 tumor cell panel screen, single dose; format: cell-based; settings: 10 μM single dose, 48 h, SRB assay, relative to complex-free control
Method: as §6

[12] = tested on: HeLa, A549, U2OS, and MCF-7 cell lines; assay: MTT cytotoxicity assay, summary over the four cell lines; format: cell-based, human; settings: 72 h, mean of HeLa, read-out: average IC50 value in the four cell lines tested
Method: as §3, §4
as §5, with “The reported IC50 values are the averages from at least three independent experiments, which each consisted of six replicates per concentration level.” left out

[13] = up 60 days; cited from earlier work

Structure (SMILES)	stability in pH 7.4 PBS (1H NMR spectra) [1]	stability in water (1H NMR spectra) [2]	IC50 [3]	IC50 [4]	Pt/DNA [5]	HeLa Cellular Uptake [6]	IC50 [7]	IC50 [8]	half-life of decomposition in pH 7.4 PBS [1]	half-life of decomposition in water [2]	DNA platination [5]	solubility in aqueous and organic solvent ([9]; aqueous and organic solvent)	solubility in water [9]	average cell growth in CNS cancer cell lines [10]	average cell growth percentage of the 60 cell lines [11]	IC50 [12]	decomposition in water [13]
CC1=CC(C)=[O+][Pt-2]([NH3+])([NH3+])[O]1.CC1=CC(C)=[O+][Pt-2]([NH3+])([NH3+])[O]1.O=S(=O)([O-])[O-] (stereo not shown) [Compound 1, [Pt(acac)(NH3)2](SO4)0.5]	no changes; also recorded: no sign of decomposition	no changes; also recorded: no sign of decomposition	32 ± 5 µM	28 ± 9 µM	0.063 ± 0.012 pmol/µg	6 ± 2 ng Pt/10^6 cells	76 ± 2 µM	24 ± 2 µM	–	–	–	–	–	–	–	–	–
CC1=CC(C(F)(F)F)=[O+][Pt-2]([NH3+])([NH3+])[O]1.CC1=CC(C(F)(F)F)=[O+][Pt-2]([NH3+])([NH3+])[O]1.O=S(=O)([O-])[O-] (stereo not shown) [Compound 2, [Pt(tfac)(NH3)2](SO4)0.5]	–	–	2.9 ± 0.7 µM	2.2 ± 0.6 µM	0.30 ± 0.07 pmol/µg	29 ± 9 ng Pt/10^6 cells	15 µM	4.1 ± 0.8 µM	3.4 days	58 days	≈ 0.3 pmol Pt/μg DNA	low solubility	–	–	–	–	–
CC1=CC(c2ccccc2)=[O+][Pt-2]([NH3+])([NH3+])[O]1.O=[N+]([O-])[O-] (stereo not shown) [Compound 3, [Pt(bzac)(NH3)2](NO3)]	no changes; also recorded: no sign of decomposition	no changes; also recorded: no sign of decomposition	24 ± 4 µM	7 ± 2 µM	0.35 ± 0.24 pmol/µg	83 ± 8 ng Pt/10^6 cells	33 ± 6 µM	8 ± 2 µM	–	–	≈ 0.3 pmol Pt/μg DNA	–	only sparingly soluble in water	–	–	–	–
O=[N+]([O-])[O-].[NH3+][Pt-2]1([NH3+])[O]C(C(F)(F)F)=CC(c2ccccc2)=[O+]1 (stereo not shown) [Compound 4, [Pt(tfbz)(NH3)2](NO3)]	–	–	3 ± 1 µM	1.3 ± 0.2 µM	14 ± 3 pmol/µg	160 ± 20 ng Pt/10^6 cells	4.3 ± 0.3 µM	1.6 ± 0.5 µM	1.8 days	29 days	–	–	only sparingly soluble in water	64.52%	89.65%	2.6 µM	–
O=[N+]([O-])[O-].[NH3+][Pt-2]1([NH3+])[O]C(c2ccccc2)=CC(c2ccccc2)=[O+]1 (stereo not shown) [Compound 5, [Pt(dbm)(NH3)2](NO3)]	no changes; also recorded: no sign of decomposition	no changes; also recorded: no sign of decomposition	6.7 ± 0.7 µM	1.3 ± 0.3 µM	23 ± 10 pmol/µg	520±80 ng Pt/10^6 cells	3.1 ± 0.5 µM	2.7 ± 0.7 µM	–	–	–	–	–	–	–	–	–
N.N.O=C([O-])C1(C(=O)[O-])CCC1.[Pt+2] [carboplatin]	–	–	–	–	–	–	–	–	–	–	–	–	–	–	–	–	no decomposition
N.N.[Cl][Pt][Cl] [cisplatin, cis-diamminedichloroplatinum(II), reference compound]	–	–	2.1 ± 0.1 µM	3.2 ± 0.6 µM	1.58 ± 0.97 pmol/µg	14 ± 2 ng Pt/10^6 cells	14 ± 3 µM	5 ± 2 µM	–	–	–	–	–	–	–	–	–
